# In patent US20080293038A1, “Method for Determining Resistance of Hiv to Nucleoside Reverse Transcriptase Inhibitor Treatment” (priority 2005, published 2008):
# Read-outs that look alike come from different tables or passages of the source.
# Test system: HIV-1 isolates from patient plasma samples (recombinant virus with patient PR-RT segment)
# Experimental: Phenotypic drug susceptibility is measured as the concentration of drug required to inhibit virus replication by 50% (IC50). As used herein, a “fold change” or “FC” is the ratio of a viral variant IC50 divided by the IC50 of a reference HIV.
# The clinical cutoff has been identified as a 3.5-fold change (“FC”) for the PHENOSENSE™ phenotypic HIV assay for FTC.
# A set of reverse transcriptase mutations for FTC was generated utilizing the HIPAA-compliant database of over 48,000 linked phenotype and genotype results for patient's samples maintained by ViroLogic, Inc. (South San Francisco, Calif.). Phenotypes and genotypes were determined in the ViroLogic clinical laboratory. […] In this subset excluding the wild-type samples, a total of 13,576 samples had IC50 fold change (FC) data available for FTC.
# The drug susceptibility phenotypes of the HIV-1 isolates from patient plasma samples was determined by the PHENOSENSE™ phenotype HIV assay. This assay was performed by amplifying the PR-RT segment of the pol gene from patient plasma and inserting it into a genomic HIV-1 vector. The vector contained a luciferase reporter gene to monitor recombinant virus infection in cell culture. Results were expressed as the FC in the IC50 for the patient-derived virus compared to that for a reference control virus, NL4-3. Drug dilutions were arranged to maximize curve-fitting accuracy for the range of wildtype virus susceptibilities over clinically relevant ranges of increased and decreased susceptibilities. Microtiter plates were incubated in customized incubators in which the temperature, CO2 level, and humidity were controlled to minimize variation in cell growth and medium composition changes throughout the plate.
# The five rules were tested separately and with the condition that none of the other rules were verified as true, except for rule 2. […] In this exercise, because of large number of samples in each category, mixtures (if present at accessory positions) were considered as mutant. In rule 2, because of the low number of samples with T69 insertion without NAMs, the condition was defined to select samples with T69 insertion and with no mutation Q151M, K65R, M184I, M184V or M184T.
smiles,measurement,setting,value
"Nc1nc(=O)n([C@@H]2CS[C@H](CO)O2)cc1F [FTC, emtricitabine]",samples classified as phenotypically resistant,"dataset of 13,576 patient samples (wild-type excluded) with FTC FC data, 8,589 samples resistant",63.2%
same,PR % (samples phenotypically resistant to FTC),"rule 1: samples with RT mutation Q151M only, PR = FC at or above clinical cutoff 3.5 vs NL4-3",53.8%
same,PR % (samples phenotypically resistant to FTC),"rule 2: samples with T69 insertion (possible NAMs), no Q151M, K65R, M184I/V/T, cutoff FC 3.5",89.4%
same,PR % (samples phenotypically resistant to FTC),"rule 3: samples with RT mutation K65R only, cutoff FC 3.5",95.2%
same,PR % (samples phenotypically resistant to FTC),"rule 4: samples with M184I, V or T only, cutoff FC 3.5",100%
same,PR % (samples phenotypically resistant to FTC),"rule 5: samples with 4 or more NAMs (M41L, E44A/D, D67N, K70R, V118I, L210W, T215F/Y, K219E/H/N/Q/R) only, cutoff FC 3.5",87.1%
same,PR % (samples phenotypically resistant to FTC),"totals: all 2794 samples meeting only one of the five rules, cutoff FC 3.5",94.9%
